Results reported in patent US8357379B2, “High concentration baclofen preparations” (Board of Regents, The University of Texas System, priority 2004, dated 2013).
Values after ≈ are worked out from the molar mass of the structure shown.

How the values were obtained:
[1] = Practical solubility by direct dissolution in normal saline, HPLC after 0.22-micron filtration; format: physicochemical; settings: about 23° C.
Procedure: The inventors attempted to prepare aqueous baclofen solutions at concentrations of 3 mg/mL, 4 mg/mL, and 5 mg/mL by direct dissolution in 0.9% sodium chloride injection, USP (normal saline). The normal saline was commercially procured by the inventors and was at ambient room temperature (about 23° C.) for use in the testing. Appropriate amounts of authentic baclofen powder were weighed and added to the normal saline and shaken to aid in dissolution. […] Both the 4-mg/mL and especially the 5-mg/mL concentration retained large amounts of undissolved powder. […] The solutions were visibly unacceptable for use as an injection. […] The inventors believe that this the concentration represents the “practical solubility” of baclofen.
As used herein, the “practical solubility” is the concentration of baclofen that can be dissolved using simple practical dissolution steps such as adding the powder to an aqueous solvent and then shaking or stirring the solvent by hand or with a mechanical device. When attempting to prepare solutions having concentrations higher than the practical solubility concentration, it is common to observe residual undissolved matter, precipitation of microparticulates, or both.

[2] = Time to complete dissolution during preparation of high concentration solutions; format: physicochemical
Procedure: Solubilization of Baclofen by Heat and Sonication. Appropriate amounts of baclofen were weighed and added to appropriate volumes of normal saline in order to produce mixtures containing 4, 5, 6, 8 or 10 mg/mL baclofen. All samples had undissolved baclofen powder present immediately after mixing. Samples having concentrations of 4, 5 or 6 mg/mL of baclofen were heated to 70° C. Samples having concentrations of 8 and 10 mg/mL of baclofen were heated to 95° C. Intense agitation was applied to all of the samples by sonicating the samples during the heating step. Heating and sonication were continued until all of the powder dissolved, and a clear solution with no residual particulate matter resulted. For the 4, 5, and 6 mg/mL samples, this occurred in about 20 to 30 minutes. […] Again, the solutions were clear with no residual particulate matter.
Solubilization of Baclofen by Heat and High-Speed Stirring. Appropriate amounts of baclofen were weighed and added to appropriate volumes of normal saline in order to produce mixtures containing 4, 5, 6, 8 or 10 mg/mL baclofen. All samples had undissolved baclofen powder present immediately after mixing. Samples having concentrations of 4, 5 or 6 mg/mL of baclofen were heated to 70° C. Samples having concentrations of 8 and 10 mg/mL of baclofen were heated to 95° C. Intense agitation was applied to all of the samples by high-speed stirring. A high-speed stir bar was placed in each of the containers for each of the baclofen concentrations was stirred using a Thermolyne stirrer at a speed of about 600 rpm while the solutions were heated. This was designed to simulate the use of a high-speed high shear mixer in a larger industrial setting. Again the heating at 70° C. for the 4, 5, and 6 mg/mL concentrations and to 95° C. for the 8 and 10 mg/mL concentrations and high-speed stirring were continued until all of the powder had dissolved and a clear solution with no residual particulate matter resulted. This occurred within about 20 minutes with all samples.
Acidification with Back Titration. Baclofen concentrations of 4, 5, 6, 8, and 10 mg/mL were prepared by dissolving appropriate amounts of baclofen powder in 0.1 N hydrochloric acid. […] The solutions were then back titrated with 0.1 N sodium hydroxide to reach a pH about 5.0 to 5.1, which is within the current product pH range for commercial baclofen solutions, and brought to volume with 0.9% sodium chloride. After complete dissolution had occurred, the solutions were filtered through 0.22-micron sterilizing filters into sterile empty vials. The vials were stored at room temperature, under refrigeration, and at 37° C. to simulate “in use” conditions in an implanted pump.
Alkalinization with Back Titration. Baclofen concentrations of 4, 5, 6, 8, and 10 mg/mL were prepared by dissolving appropriate amounts of baclofen powder in 0.1 N sodium hydroxide. […] The solutions were then back titrated with 0.1 N hydrochloric acid to reach a pH about 6.9 to 7.0, which is within the current product range, and brought to volume with 0.9% sodium chloride. After complete dissolution had occurred, the solutions were filtered through 0.22-micron sterilizing filters into sterile empty vials. The vials were stored at room temperature, under refrigeration, and at 37° C. to simulate “in use” conditions in an implanted pump.

[3] = cited from earlier work
[4] = 20° C.; cited from earlier work
[5] = aqueous solution, room temperature, neutral pH (pH 6 to 7); calculated (Ahuja, 1985); cited from earlier work

- solubility at 1 week ([1]; 0.9% sodium chloride injection, USP (normal saline), saline or isotonic, thermodynamic from solid, normal saline, putative 4 mg/mL and 5 mg/mL samples, shaking one week, filtered 0.22-micron, HPLC, read-out: amount of baclofen actually dissolved (practical solubility)): 3300 to 3500 µg/mL (≈ 15.4 to 16.4 mM)
- complete dissolution by direct dissolution ([1]; 4-mg/mL and 5-mg/mL in normal saline, vigorous shaking 60 minutes, then automated shaking for one week): failed to result in complete dissolution
- time until all powder dissolved (clear solution) ([2]; 4, 5, 6 mg/mL at 70° C. and 8, 10 mg/mL at 95° C., normal saline, high-speed stirring about 600 rpm (Example 2)): ≤ 20 min
- time until powder dissolved (clear solution) ([2]; 4, 5, 6, 8, and 10 mg/mL in 0.1 N hydrochloric acid (Example 3)): within a few minutes
- time until powder dissolved (clear solution) ([2]; 4, 5, 6, 8, and 10 mg/mL in 0.1 N sodium hydroxide (Example 4)): within a few minutes
- time until all powder dissolved (clear solution) ([2]; 4, 5, and 6 mg/mL in normal saline, 70° C., sonication (Example 1)): 20 to 30 min
- time until all powder dissolved (clear solution) ([2]; 8 and 10 mg/mL in normal saline, 95° C., sonication (Example 1)): about 20 minutes
Compound: NCC(CC(=O)O)c1ccc(Cl)cc1 (stereo not shown) [Baclofen, 4-amino-3-(p-chlorophenyl) butyric acid]
- concentration obtained by dissolving in acid ([3]; aqueous 0.1N HCl (Ahuja 1985)): greater than 20 mg/ml
- concentration obtained by dissolving in base ([3]; aqueous 0.1N NaOH (Ahuja 1985)): greater than 20 mg/ml
- solubility in chloroform ([3]; chloroform): insoluble
- solubility in methanol ([3]; methanol): very slightly soluble
- upper limit on room temperature aqueous solubility ([3]; room temperature, equilibrium reached over weeks or months (Ahuja, 1985)): 4300 µg/mL
- solubility in water ([3]; water): slightly soluble
- pKa1 [4]: 3.8±0.1
- pKa2 [4]: 9.62±0.1
- time before there is 10% decomposition of the dissolved baclofen [5]: 10 years
